Measurements reported in patent US20110218506A1, “AMOROLFINE PATCH FOR THE TREATMENT OF ONYCHOMYCOSIS” (Galderma Research & Development, priority 2004, published 2011).
Structures can show the parent of a compound that is named as a salt.

Assay: Solubility in formulation solvents
Format: physicochemical

SMILES: O=C1CCCCCCCCCCCCCCO1 [Exaltolide]
- solubility in ethyl acetate (ethyl acetate): highly soluble

SMILES: CCC(C)(C)c1ccc(CC(C)CN2C[C@@H](C)O[C@@H](C)C2)cc1 (stereo partly drawn) [amorolfine HCl, hydrochloride of the cis-4-[3-[4-(1,1-dimethyl-propyl)phenyl]-2-methylpropyl]-2,6-dimethyl-morpholine]
- solubility in ethanol (ethanol): particularly soluble
